From patent US20100267637A1, “TREATMENT OF MELANOMA WITH ALPHA THYMOSIN PEPTIDES IN COMBINATION WITH A KINASE INHIBITOR” (SciClone Pharmaceuticals, Inc., priority 2007, published 2010) come the findings set out here.

Where no end group is shown, it is not given here.

The test system of the assay is murine B16 melanoma cells. The assay can be described thus: Anti-tumor effect: tumor weight at necropsy (Day 16) in mice bearing subcutaneous B16 melanoma. The class given is in vivo, C57BL/6 mice. To be noted: for Tumor Weight (g) (Mean ± SD): group mean. As for the experimental part: The toxic effects of the dosing regimens were also monitored. […] Meanwhile 9H10 was given in two groups via i.p. on Day 3, 6 and 9. […] Tumor volume and body weight were measured every three days, and tumor weights were measured on Day 16 at the end of the study.
On the day of tumor implantation, approximately 1×10^6 cells in 0.1 mL were subcutaneously injected on the right axillary area of each mouse. The day of tumor implantation was defined as Day 0.
On Day 3, the animals were randomly assigned into nine different weight-matched and tumor-size-matched groups. Dosing was started on Day 3 using the regimen according to Table 2.
From Day 1 to Day 15, mortality and moribundity were checked twice daily, the body weights were recorded once every 3 days, and tumors were measured using a caliper once every 3 days. At the end of the study (Day 16), the animals were euthanized by CO2 asphyxiation, and the tumors were excised and weighed.
The anti-tumor effect of the test article was further evaluated with tumor weight (TW) measured on day of necropsy (Day 16). The PI of TW was calculated using the equation below:
PITW(%)=100×(TW vehicle−TW drug treated)/TW vehicle
Inter-group comparison was performed in terms of tumor volume, tumor weight and body weight, using a student's t test. P values of less than 0.05 were considered to be statistically significant.

On to “Thymosin Alpha-1 (Ac-SDAAVDTSSEITTKDLKEKKEVVEEAEN; ends and bridges not checked; UniProt P06454 2-29, looked up) [TA-1, 28 amino acid peptide, immunomodulator; test article (SciClone), 6 mg/kg s.c. daily]”, for which the “Tumor Weight (g) (Mean ± SD)” value is given as 0.96 ± 0.688 g and the “percent inhibition of tumor weight vs vehicle” value (from here on “percent inhibition”) was determined as 43.35%. In addition, the “Tumor weight on Day 16” value (animal F1) was 0.63 g. Also, the “Tumor weight on Day 16” value (animal F2) is given as 0.44 g. Besides, under “animal F3”, the “Tumor weight on Day 16” value is 0.45 g. Further, the “Tumor weight on Day 16” value (animal F4) is 0.75 g. The “Tumor weight on Day 16” value (animal F5) turned out to be 0.08 g. Also, where the note is “animal M1”, the “Tumor weight on Day 16” value is 0.73 g. In addition, the “Tumor weight on Day 16” value (animal M2) was determined as 1.30 g. The “Tumor weight on Day 16” value (animal M3) came to 2.00 g. Further, the “Tumor weight on Day 16” value (animal M4) is on record as 2.20 g. Besides, where the note is “animal M5”, the “Tumor weight on Day 16” value is reported as 1.05 g.

Take `CN(C)/N=N/c1[nH]cnc1C(N)=O` [DTIC, Dacarbazine]: the “Tumor Weight (g) (Mean ± SD)” value is 1.22 ± 0.699 g and the “percent inhibition” value was found to be 28.41%. Moreover, the “Tumor weight on Day 16” value (animal F1) was found to be 1.40 g. Also, the “Tumor weight on Day 16” value (animal F2) worked out at 0.43 g. Besides, the “Tumor weight on Day 16” value (animal F3) is 0.47 g. In addition, under “animal F4”, the “Tumor weight on Day 16” value is recorded as 0.68 g. Further, the “Tumor weight on Day 16” value (animal F5) was determined as 0.56 g. For the setting “animal M1”, the “Tumor weight on Day 16” value amounted to 1.80 g. Further, the “Tumor weight on Day 16” value (animal M2) amounted to 1.80 g. The “Tumor weight on Day 16” value (animal M3) came out at 0.83 g. Besides, the “Tumor weight on Day 16” value (animal M4) is 2.30 g. For the same molecule, the “Tumor weight on Day 16” value (animal M5) was determined as 1.90 g.

On to `CNC(=O)c1cc(Oc2ccc(NC(=O)Nc3ccc(Cl)c(C(F)(F)F)c3)cc2)ccn1` [Sorafenib], for which the “Tumor Weight (g) (Mean ± SD)” value is on record as 0.24 ± 0.088 g and the “percent inhibition” value came to 85.76%. Also, the “Tumor weight on Day 16” value (animal F1) came to 0.23 g. In addition, the “Tumor weight on Day 16” value (animal F2) was found to be 0.16 g. Moreover, for the setting “animal F3”, the “Tumor weight on Day 16” value is 0.32 g. Also, the “Tumor weight on Day 16” value (animal F4) is recorded as 0.30 g. Further, under “animal F5”, the “Tumor weight on Day 16” value came out at 0.16 g. In addition, for the setting “animal M1”, the “Tumor weight on Day 16” value is given as 0.10 g. The “Tumor weight on Day 16” value (animal M2) is recorded as 0.38 g. Besides, for the setting “animal M3”, the “Tumor weight on Day 16” value is 0.20 g. Further, the “Tumor weight on Day 16” value (animal M4) is on record as 0.25 g. Further, the “Tumor weight on Day 16” value (animal M5) is given as 0.32 g.
